The source of these data is publication PMC6437697 (Journal of Medicinal Chemistry, 2019).

Experiment in all cases: KINOMEscan
Common to all, as to type: binding
Holding throughout (settings): read-out: % control activity remaining

In one assay the target is T1, CSF1R (Homo sapiens, UniProt P07333).
T1 construct: purchased Eurofins DiscoverX KINOMEscan

A further assay concerns the target T2, DRAK1 (Homo sapiens, UniProt Q9UEE5).
T2 construct: purchased Eurofins DiscoverX KINOMEscan
T2 sequence (Q9UEE5 1-414): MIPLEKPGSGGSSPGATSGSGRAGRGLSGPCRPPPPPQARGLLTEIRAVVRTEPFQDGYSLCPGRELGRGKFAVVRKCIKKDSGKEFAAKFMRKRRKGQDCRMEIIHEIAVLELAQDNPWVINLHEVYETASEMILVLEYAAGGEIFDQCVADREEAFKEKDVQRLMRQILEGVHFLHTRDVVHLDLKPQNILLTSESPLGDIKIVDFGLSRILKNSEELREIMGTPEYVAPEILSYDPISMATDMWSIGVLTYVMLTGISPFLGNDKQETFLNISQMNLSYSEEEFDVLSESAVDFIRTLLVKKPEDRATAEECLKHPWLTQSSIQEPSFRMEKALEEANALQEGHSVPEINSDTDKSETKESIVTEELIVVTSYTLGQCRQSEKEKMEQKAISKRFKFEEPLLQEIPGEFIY

For the next assay, the target named is T3, EIF2AK1 (Homo sapiens, UniProt Q9BQI3).
T3 construct: purchased Eurofins DiscoverX KINOMEscan
T3 sequence (Q9BQI3 whole entry): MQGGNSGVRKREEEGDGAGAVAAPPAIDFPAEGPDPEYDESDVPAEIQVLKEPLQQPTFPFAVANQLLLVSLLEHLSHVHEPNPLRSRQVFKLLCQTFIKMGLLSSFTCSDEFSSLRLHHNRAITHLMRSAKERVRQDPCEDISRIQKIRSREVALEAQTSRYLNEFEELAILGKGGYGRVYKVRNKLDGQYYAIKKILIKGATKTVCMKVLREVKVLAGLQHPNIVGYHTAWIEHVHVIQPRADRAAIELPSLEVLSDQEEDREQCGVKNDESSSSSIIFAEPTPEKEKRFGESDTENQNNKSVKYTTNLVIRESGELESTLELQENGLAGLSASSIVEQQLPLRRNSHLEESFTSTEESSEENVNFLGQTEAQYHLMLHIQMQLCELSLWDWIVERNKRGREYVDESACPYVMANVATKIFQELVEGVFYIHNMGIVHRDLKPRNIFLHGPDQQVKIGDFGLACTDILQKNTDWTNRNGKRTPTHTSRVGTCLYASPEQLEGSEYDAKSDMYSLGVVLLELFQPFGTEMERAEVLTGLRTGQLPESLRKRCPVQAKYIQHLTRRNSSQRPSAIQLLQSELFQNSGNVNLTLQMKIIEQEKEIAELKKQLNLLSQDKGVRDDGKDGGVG

The next assay has as its target T4, EPHB1 (Homo sapiens, UniProt P54762).
T4 construct: purchased Eurofins DiscoverX KINOMEscan
T4 sequence (P54762 18-984): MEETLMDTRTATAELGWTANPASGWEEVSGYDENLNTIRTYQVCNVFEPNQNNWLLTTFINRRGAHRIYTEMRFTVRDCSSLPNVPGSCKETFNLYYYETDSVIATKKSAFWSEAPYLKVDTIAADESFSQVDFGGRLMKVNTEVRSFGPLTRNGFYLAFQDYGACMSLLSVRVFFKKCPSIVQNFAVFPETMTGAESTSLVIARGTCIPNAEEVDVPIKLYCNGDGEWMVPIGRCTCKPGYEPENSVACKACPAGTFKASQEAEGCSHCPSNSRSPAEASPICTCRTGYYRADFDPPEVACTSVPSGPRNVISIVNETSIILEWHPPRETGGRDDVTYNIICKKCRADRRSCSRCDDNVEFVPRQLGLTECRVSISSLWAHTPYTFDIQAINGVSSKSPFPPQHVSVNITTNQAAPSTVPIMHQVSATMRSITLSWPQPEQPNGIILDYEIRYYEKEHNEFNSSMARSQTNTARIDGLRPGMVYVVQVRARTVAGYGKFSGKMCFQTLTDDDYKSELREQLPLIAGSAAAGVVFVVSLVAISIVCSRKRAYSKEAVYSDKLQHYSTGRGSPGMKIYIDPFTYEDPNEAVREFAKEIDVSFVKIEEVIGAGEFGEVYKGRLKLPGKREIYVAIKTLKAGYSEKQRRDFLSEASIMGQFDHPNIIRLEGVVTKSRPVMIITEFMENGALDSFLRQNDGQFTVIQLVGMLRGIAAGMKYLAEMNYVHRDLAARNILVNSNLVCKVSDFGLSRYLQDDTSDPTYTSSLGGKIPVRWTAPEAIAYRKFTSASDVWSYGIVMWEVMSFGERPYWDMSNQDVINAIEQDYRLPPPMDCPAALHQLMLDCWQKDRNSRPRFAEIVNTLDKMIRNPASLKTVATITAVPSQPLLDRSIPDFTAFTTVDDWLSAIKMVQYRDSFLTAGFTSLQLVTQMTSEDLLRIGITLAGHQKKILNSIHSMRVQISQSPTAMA

Assay [1] deals with T5, JAK1(JH1domain-catalytic) (Homo sapiens, UniProt P23458).
T5 construct: JAK1(JH1domain-catalytic); purchased Eurofins DiscoverX KINOMEscan
T5 sequence (P23458 875-1154 limits assumed): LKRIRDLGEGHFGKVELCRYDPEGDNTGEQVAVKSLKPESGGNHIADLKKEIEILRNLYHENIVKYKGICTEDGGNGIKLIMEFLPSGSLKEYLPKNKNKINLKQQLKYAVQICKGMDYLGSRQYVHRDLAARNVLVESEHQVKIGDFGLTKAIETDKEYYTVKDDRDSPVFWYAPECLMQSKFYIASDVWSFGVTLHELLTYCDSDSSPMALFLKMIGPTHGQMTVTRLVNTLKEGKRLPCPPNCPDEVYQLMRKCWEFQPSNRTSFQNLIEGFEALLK

The next assay deals with T6, LIMK2 (Homo sapiens, UniProt P53671).
T6 construct: purchased Eurofins DiscoverX KINOMEscan
T6 sequence (P53671 whole entry): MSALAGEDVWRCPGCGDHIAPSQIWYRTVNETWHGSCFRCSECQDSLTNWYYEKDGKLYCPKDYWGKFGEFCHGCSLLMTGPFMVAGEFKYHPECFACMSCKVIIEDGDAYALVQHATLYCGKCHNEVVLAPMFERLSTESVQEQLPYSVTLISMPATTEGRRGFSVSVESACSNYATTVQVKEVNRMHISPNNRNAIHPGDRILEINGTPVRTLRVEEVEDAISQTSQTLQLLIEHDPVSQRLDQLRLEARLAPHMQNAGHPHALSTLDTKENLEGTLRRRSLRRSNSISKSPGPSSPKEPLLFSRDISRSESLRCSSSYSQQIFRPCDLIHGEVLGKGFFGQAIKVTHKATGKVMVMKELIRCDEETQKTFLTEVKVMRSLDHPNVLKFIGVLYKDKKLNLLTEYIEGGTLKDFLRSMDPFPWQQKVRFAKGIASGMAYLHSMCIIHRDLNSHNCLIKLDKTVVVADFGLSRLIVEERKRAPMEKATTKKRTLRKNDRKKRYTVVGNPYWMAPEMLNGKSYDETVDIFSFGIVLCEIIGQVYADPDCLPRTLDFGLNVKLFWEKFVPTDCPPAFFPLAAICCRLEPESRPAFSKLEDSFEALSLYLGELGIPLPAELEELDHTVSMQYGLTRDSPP

A further assay addresses T7, MAP4K4 (Homo sapiens, UniProt O95819).
T7 construct: purchased Eurofins DiscoverX KINOMEscan

In another assay the target is T8, PDGFRA (Homo sapiens, UniProt P16234).
T8 construct: purchased Eurofins DiscoverX KINOMEscan
T8 sequence (P16234 24-1089): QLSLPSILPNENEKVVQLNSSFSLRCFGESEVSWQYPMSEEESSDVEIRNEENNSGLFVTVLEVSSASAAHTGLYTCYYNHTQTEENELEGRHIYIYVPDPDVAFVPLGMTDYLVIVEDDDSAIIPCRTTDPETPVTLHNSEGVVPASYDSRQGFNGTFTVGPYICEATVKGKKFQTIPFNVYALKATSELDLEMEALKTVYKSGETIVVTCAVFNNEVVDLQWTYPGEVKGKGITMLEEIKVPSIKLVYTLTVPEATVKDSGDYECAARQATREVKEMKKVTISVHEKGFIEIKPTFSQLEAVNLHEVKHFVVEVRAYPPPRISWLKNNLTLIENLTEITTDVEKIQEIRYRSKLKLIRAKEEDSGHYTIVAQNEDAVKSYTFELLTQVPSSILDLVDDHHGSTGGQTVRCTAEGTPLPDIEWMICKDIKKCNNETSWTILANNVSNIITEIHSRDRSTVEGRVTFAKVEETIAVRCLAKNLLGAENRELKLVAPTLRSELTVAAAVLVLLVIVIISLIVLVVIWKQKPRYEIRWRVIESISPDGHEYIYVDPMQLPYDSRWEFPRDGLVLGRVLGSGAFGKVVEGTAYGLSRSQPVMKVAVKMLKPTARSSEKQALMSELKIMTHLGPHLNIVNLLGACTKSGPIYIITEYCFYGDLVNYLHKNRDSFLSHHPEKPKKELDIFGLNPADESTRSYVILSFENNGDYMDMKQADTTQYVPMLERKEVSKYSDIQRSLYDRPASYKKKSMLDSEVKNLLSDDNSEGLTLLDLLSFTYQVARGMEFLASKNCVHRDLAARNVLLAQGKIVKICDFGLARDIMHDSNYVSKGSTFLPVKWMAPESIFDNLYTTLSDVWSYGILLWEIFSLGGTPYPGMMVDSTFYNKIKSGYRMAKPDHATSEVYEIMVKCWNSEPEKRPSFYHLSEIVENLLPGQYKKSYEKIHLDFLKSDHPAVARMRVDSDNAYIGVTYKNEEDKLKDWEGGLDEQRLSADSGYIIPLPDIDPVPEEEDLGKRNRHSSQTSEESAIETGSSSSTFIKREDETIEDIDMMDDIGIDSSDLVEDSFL

The target in another assay is T9, PIK3CA (Homo sapiens, UniProt P42336).
T9 construct: purchased Eurofins DiscoverX KINOMEscan
T9 sequence (P42336 whole entry): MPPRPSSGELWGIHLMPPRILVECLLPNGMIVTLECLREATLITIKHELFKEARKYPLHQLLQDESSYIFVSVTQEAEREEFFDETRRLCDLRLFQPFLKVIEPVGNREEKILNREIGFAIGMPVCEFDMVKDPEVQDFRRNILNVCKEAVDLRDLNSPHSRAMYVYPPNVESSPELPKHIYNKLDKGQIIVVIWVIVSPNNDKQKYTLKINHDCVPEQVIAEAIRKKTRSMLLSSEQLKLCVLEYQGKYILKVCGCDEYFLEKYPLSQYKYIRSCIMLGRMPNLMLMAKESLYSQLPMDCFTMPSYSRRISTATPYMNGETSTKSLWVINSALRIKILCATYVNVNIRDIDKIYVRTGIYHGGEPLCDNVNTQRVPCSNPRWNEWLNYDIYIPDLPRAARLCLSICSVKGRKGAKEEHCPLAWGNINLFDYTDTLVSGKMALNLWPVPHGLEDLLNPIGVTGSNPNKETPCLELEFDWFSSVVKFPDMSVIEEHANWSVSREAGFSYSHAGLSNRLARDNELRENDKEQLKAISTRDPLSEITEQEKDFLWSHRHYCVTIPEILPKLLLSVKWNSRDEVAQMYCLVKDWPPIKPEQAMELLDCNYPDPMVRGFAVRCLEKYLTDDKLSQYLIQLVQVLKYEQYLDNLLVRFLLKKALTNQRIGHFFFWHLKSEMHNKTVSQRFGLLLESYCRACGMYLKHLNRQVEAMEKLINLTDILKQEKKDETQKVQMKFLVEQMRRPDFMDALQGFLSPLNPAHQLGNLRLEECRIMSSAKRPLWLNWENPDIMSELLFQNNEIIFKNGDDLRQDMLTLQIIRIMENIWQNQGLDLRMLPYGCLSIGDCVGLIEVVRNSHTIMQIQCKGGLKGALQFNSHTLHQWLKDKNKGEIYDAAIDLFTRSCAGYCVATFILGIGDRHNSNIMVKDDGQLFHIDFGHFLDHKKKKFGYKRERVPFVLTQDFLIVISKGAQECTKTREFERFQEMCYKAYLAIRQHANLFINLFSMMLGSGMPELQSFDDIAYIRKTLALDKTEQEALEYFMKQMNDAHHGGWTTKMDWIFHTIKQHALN

Another assay deals with T10, PIK3CA(E545A) (Homo sapiens, UniProt P42336, E545A).
T10 construct: purchased Eurofins DiscoverX KINOMEscan
T10 sequence (P42336 whole entry E545A): as the sequence (P42336 whole entry) above, with E545A counted along it

In another assay the target is T11, PIM2 (Homo sapiens, UniProt Q9P1W9).
T11 construct: purchased Eurofins DiscoverX KINOMEscan
T11 sequence (Q9P1W9 whole entry): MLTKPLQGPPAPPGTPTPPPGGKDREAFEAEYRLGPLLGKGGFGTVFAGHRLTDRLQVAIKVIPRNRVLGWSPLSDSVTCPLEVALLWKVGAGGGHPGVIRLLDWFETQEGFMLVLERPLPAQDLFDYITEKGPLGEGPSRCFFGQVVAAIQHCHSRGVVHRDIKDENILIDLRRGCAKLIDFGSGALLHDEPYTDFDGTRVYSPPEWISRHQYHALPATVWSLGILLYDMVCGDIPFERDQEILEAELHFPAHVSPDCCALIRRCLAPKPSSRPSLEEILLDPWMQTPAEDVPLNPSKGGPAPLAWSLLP

For a further assay, the target named is T12, SGK (Homo sapiens, UniProt O00141).
T12 construct: purchased Eurofins DiscoverX KINOMEscan
T12 sequence (O00141 1-431): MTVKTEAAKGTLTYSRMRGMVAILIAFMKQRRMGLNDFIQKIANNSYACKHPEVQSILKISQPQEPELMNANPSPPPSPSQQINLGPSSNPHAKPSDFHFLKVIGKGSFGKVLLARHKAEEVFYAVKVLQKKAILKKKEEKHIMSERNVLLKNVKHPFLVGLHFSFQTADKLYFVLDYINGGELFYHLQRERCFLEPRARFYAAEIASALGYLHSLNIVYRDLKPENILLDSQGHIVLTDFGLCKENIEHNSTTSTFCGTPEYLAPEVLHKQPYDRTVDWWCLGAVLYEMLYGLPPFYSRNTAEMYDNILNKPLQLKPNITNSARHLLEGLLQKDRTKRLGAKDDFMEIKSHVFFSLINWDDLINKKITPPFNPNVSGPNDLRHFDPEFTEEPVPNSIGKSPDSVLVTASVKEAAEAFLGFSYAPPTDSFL

In another assay the target is T13, SYK (Homo sapiens, UniProt P43405).
T13 construct: purchased Eurofins DiscoverX KINOMEscan

The target in a further assay is T14, TRKB (Homo sapiens, UniProt Q16620).
T14 construct: purchased Eurofins DiscoverX KINOMEscan
T14 sequence (Q16620 32-822): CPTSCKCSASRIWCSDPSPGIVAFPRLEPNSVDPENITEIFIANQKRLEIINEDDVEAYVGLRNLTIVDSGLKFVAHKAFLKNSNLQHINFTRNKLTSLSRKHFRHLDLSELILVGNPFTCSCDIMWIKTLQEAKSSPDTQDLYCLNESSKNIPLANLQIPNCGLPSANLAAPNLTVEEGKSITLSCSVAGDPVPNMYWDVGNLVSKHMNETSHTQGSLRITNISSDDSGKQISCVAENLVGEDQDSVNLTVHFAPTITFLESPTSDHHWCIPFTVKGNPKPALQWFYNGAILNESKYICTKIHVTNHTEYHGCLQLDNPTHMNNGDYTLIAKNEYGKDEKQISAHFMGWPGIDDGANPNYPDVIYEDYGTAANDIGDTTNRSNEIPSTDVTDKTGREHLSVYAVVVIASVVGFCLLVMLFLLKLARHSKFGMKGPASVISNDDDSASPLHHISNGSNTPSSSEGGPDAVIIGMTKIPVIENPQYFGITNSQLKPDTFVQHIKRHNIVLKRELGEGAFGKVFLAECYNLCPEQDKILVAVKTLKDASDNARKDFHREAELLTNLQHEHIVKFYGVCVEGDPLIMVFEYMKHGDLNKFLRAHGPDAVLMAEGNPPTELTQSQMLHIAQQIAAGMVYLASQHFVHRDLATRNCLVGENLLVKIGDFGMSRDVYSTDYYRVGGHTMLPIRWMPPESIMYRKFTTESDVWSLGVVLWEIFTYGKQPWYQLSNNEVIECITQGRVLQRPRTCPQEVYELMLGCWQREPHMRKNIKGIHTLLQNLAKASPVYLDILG

On to `Clc1cc(NCC2CC2)c2ncc(-c3ccc4[nH]ncc4c3)n2n1` [compound 2, 6-Chloro-N-(cyclopropylmethyl)-3-(1H-indazol-5-yl)imidazo[1,2-b]pyridazin-8-amine], for which the remaining binding at 1 µM turned out to be 79% at CSF1R; 18% at DRAK1; 100% at EIF2AK1; 100% at EPHB1; 100% in assay [1]; 94% at LIMK2. In addition, the remaining binding at 1 µM on MAP4K4 is 92%; on PDGFRA it was 12%; on PIK3CA, 72%; on PIK3CA(E545A) it was 88%; on PIM2, 100%; on SGK it was 91%. Besides, the results for the remaining binding at 1 µM on SYK and on TRKB were 97% and 89%, respectively.
For the molecule `O=C(CN1CCOCC1)N[C@H]1CC[C@H](Nc2cc(Cl)nn3c(-c4ccc5[nH]ncc5c4)cnc23)CC1` [compound 26], the remaining binding at 1 µM worked out at 21% at CSF1R; 20% on DRAK1; 78% on EIF2AK1; 89% at EPHB1; 100% in assay [1]; 85% on LIMK2. The remaining binding at 1 µM is 75% at MAP4K4; 0.3% on PDGFRA; 97% on PIK3CA; 100% at PIK3CA(E545A); 100% on PIM2; 94% at SGK. For the same molecule, the remaining binding at 1 µM at SYK is 100%; on TRKB, 69%.
Regarding `CN1CCC(CNc2cc(Cl)nn3c(-c4cc5nc(Nc6ccccc6)[nH]c5cc4F)cnc23)CC1` [compound 31, 6-Chloro-3-(6-fluoro-2-(phenylamino)-1H-benzo[d]imidazol-5-yl)-N-((1-methylpiperidin-4-yl)methyl)imidazo[1,2-b]pyridazin-8-amine], the remaining binding at 1 µM at CSF1R was found to be 60%; at DRAK1 it was 91%; on EIF2AK1, 78%; on EPHB1, 84%; in assay [1] it was 100%; at LIMK2 it was 100%. For the same molecule, the remaining binding at 1 µM amounted to 100% on MAP4K4; 94% at PDGFRA; 90% on PIK3CA; 78% at PIK3CA(E545A); 100% at PIM2; 76% on SGK. In addition, the remaining binding at 1 µM on SYK worked out at 92%; on TRKB, 91%.
